In PubChem BioAssay (NCI):
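1) Cells in 96-well plates. 2) Compound, 48 h, 5 concentrations. 3) Linear interpolation between surrounding doses. 4) Unreached endpoint = highest concentration. GI50 marks 50% less growth. At the TGI there is no net growth.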

Columns and labels:
Assay in all cases: DTP human tumour cell line panel, 48 h
HCT-116 colon = test system: HCT-116 colon
NCI/ADR-RES ovarian = test system: NCI/ADR-RES ovarian
OVCAR-5 ovarian = test system: OVCAR-5 ovarian
RPMI-8226 leukemia = test system: RPMI-8226 leukemia
SK-MEL-5 melanoma = test system: SK-MEL-5 melanoma
SK-OV-3 ovarian = test system: SK-OV-3 ovarian
SNB-19 CNS = test system: SNB-19 CNS
SW-620 colon = test system: SW-620 colon
TK-10 renal = test system: TK-10 renal
UO-31 renal = test system: UO-31 renal

| Compound | TGI (HCT-116 colon) [µM] | TGI (NCI/ADR-RES ovarian) [µM] | TGI (OVCAR-5 ovarian) [µM] | TGI (RPMI-8226 leukemia) [µM] | TGI (SK-MEL-5 melanoma) [µM] | TGI (SK-OV-3 ovarian) [µM] | TGI (SNB-19 CNS) [µM] | TGI (SW-620 colon) [µM] | TGI (TK-10 renal) [µM] | TGI (UO-31 renal) [µM] | GI50 (HCT-116 colon) [µM] | GI50 (NCI/ADR-RES ovarian) [µM] | GI50 (OVCAR-5 ovarian) [µM] | GI50 (RPMI-8226 leukemia) [µM] | GI50 (SK-MEL-5 melanoma) [µM] | GI50 (SK-OV-3 ovarian) [µM] | GI50 (SNB-19 CNS) [µM] | GI50 (SW-620 colon) [µM] | GI50 (TK-10 renal) [µM] | GI50 (UO-31 renal) [µM] |
| --- | --- | --- | --- | --- | --- | --- | --- | --- | --- | --- | --- | --- | --- | --- | --- | --- | --- | --- | --- | --- |
| O=c1c2ccccc2[se]n1-c1cccnc1 | > 100 | > 100 | > 100 | 86.9 | 26.7 | > 100 | > 100 | 83.3 | 50.1 | 93.7 | – | – | – | – | – | – | – | – | – | – |
| CCN1CCN(c2ccc(Nc3cc(N(C)C(=O)Nc4c(Cl)c(OC)cc(OC)c4Cl)ncn3)cc2)CC1 | 5.2 | > 64.5 | 14.7 | 4.71 | 8.47 | 20.8 | 18.7 | 9.76 | 12.5 | 10 | 1.73 | 3.7 | 3.7 | 1.76 | 4.27 | 8.02 | 4.06 | 2.42 | 2.5 | 1.35 |
| O=C(OCc1ccc2cccc(O)c2n1)N1CCN(C(=O)c2cc3cc(F)ccc3[nH]2)CC1 | 1.32 | 6.07 | 3.16 | 0.787 | 3.07 | 11.9 | 2.92 | 1.91 | 3.16 | 1.93 | 0.357 | 1.76 | 1.7 | 0.251 | 1.69 | 2.77 | 1.55 | 0.42 | 1.77 | 0.358 |
| COc1ccc(N2C(=O)C(c3ccccc3)(c3ccccc3)C23C(=O)N(C)c2ccccc23)cc1 (stereo not given) | > 100 | > 100 | > 100 | > 100 | > 100 | > 100 | > 100 | > 100 | > 100 | > 100 | > 100 | > 100 | > 100 | > 100 | > 100 | > 100 | > 100 | > 100 | > 100 | > 100 |
| Cc1c2cccnc2c(C)c2c1c1cc(CO)ccc1n2C | 3.26 | 8.51 | 8.78 | 7.3 | 5.12 | 6.95 | 14.6 | 14.5 | 7.77 | 10.5 | 0.42 | 1.3 | 0.618 | 2.09 | 1.75 | 2.14 | 2.67 | 1.25 | 2.57 | 1.41 |
| Clc1coc2nc3ccccc3c(Nc3ccc4c(c3)OCO4)c12 | 11.8 | 8.01 | > 100 | 4.44 | 5.78 | > 100 | > 100 | 12.1 | 17.4 | > 100 | 0.443 | 0.512 | 6.99 | 1.45 | 1.46 | 2.24 | 1.8 | 3.22 | 2.59 | 6.5 |
